Assay results as given in paper PMC2643072 (Journal of medicinal chemistry, 2008).

Biological target: T1, porcine erythrocyte μ-calpain (Sus scrofa, UniProt P35750)
T1 sequence (P35750 1-714): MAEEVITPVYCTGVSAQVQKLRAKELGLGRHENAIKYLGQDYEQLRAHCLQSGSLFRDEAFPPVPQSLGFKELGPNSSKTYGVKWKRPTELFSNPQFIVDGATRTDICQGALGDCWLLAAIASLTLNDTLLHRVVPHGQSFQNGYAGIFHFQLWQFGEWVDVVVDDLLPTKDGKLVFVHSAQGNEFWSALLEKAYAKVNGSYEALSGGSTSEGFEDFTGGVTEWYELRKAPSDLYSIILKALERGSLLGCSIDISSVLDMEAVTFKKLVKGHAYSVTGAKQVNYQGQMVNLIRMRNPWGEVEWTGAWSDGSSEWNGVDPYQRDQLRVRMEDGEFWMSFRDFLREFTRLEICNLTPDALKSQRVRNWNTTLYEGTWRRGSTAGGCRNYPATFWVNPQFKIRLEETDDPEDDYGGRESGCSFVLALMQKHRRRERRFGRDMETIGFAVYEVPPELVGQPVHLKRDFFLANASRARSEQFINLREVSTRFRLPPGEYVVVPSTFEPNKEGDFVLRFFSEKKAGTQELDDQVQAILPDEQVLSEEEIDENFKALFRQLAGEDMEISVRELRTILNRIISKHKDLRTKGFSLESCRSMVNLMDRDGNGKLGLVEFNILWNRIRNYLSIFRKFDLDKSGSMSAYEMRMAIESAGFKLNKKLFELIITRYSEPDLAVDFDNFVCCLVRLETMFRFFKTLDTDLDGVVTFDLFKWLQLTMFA
T1 sequence (P04574 1-266 partner): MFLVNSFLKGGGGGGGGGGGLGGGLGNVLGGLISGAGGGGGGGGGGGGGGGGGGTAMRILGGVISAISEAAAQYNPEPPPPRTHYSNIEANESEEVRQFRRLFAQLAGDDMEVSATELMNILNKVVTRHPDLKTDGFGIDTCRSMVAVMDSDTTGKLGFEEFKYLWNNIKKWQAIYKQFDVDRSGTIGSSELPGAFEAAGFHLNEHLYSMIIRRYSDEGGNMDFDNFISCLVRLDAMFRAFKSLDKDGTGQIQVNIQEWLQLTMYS
Assay: μ-Calpain inhibition assay
Format: biochemical

| μ-calpain inhibitory potency relative to 2c (diphenylpropionyl (2d) vs diphenylacetyl (2c) N-terminal cap) | fold more potent than 2a and 2b (μ-calpain inhibition) (planar fluorene cap vs cyclohexyl (2a) and adamantyl (2b) caps) | Structure (SMILES) |
| --- | --- | --- |
| about twice as potent |  | CC(C)C[C@H](NC(=O)CC(c1ccccc1)c1ccccc1)C(=O)NC(Cc1ccccc1)C(=O)C(=O)O (stereo partly drawn) [Compound 2d, N-(3,3-Diphenylpropionyl)-L-leucyl-2-oxo-3(R,S)-amino-4-phenylbutanoic acid] |
|  | over 5 fold | CC(C)C[C@H](NC(=O)CC1c2ccccc2-c2ccccc21)C(=O)NC(Cc1ccccc1)C(=O)C(=O)O (stereo partly drawn) [Compound 2e, N-(9-Fluoreneacetyl)-L-leucyl-2-oxo-3(R,S)-amino-4-phenylbutanoic acid] |
